Read-outs that look alike come from different tables or passages of the source.
What was measured:
Assay type in all cases: cell-based
[1] = system: U1 cells latently infected with HIV-1; test: U1 latency activation assay (TNF-α induced, supernatant reverse transcriptase); settings: for TI (TC50/IC50): Table 6
Method: U1 cells were obtained from the AIDS Research and Reference Reagent Program and maintained under standard culture conditions in RPMI 1640 supplemented with 10% fetal bovine serum (heat inactivated), 2 mM L-glutamine, 100 U/mL penicillin and 100 μg/mL streptomycin. U1 cells are derived from the histocytic leukemia cell line U937, and contain an integrated copy of a cytokine and/or phorbol inducible provirus (HIV-1IIIB). Cultures were maintained in such a way as to ensure exponential growth of the populations. Addition of TNF-α to the cell culture induces HIV-1, so that inhibition of virus production indicates an inhibition of a post-integration function of the HIV-1 life cycle. This is where an inhibitor of Rev function would be expected to act. […]
(§1) At the time of the assay, cells were collected by centrifugation and counted by hemacytometer. If cell viability by Trypan Blue dye exclusion was less than 70% the assay was terminated. The cells were adjusted to 5×10^4 cells/mL and 100 μL placed in 96 well plates with 100 μL media containing a final concentration of 5 ng/mL TNF-α and the test compound. Cultures were incubated for 3 days and supernatants harvested. Compound toxicity was determined by MTS dye reduction. Virus expression was measured by supernatant reverse transcriptase activity.
Reverse transcriptase was assayed to measure virus particle release as described above for the PBMC assay.
(§2) Compounds were tested in the U1 latency assay using the maximum high-test concentration possible based on the supplied stocks which are listed in table 3. Compounds were tested using the maximum high-test concentration possible based on the supplied stocks. Compounds were prepared at a 2× high-test concentration by combining drug stock with tissue culture media at a ratio of 5 μL of drug to 995 μL of media. This 2× high-test sample was subsequently serially diluted in tissue culture media using 1/2 log dilutions. This series of 2× concentrated drug was subsequently diluted 1:1 by combining with an equal volume of cells in media in the 96-well plates used for the assay. Temacrazine a known inhibitor of HIV transcription was used as a control compound that is active in the post-integration part of the HIV life cycle.
(§3) Compounds were tested using the maximum high-test concentration possible based on the supplied stocks. Compounds were prepared at a 2× high-test concentration by combining drug stock with tissue culture media at a ratio of 5 μL of drug to 995 μL of media. This 2× high-test (HT) sample was subsequently serially diluted in tissue culture media using 1/2 log dilutions. This series of 2× concentrated drug was subsequently diluted 1:1 by combining with an equal volume of cells in media in the 96-well plates used for the assay.

HIV-1 BR/93/021 = test: Anti-HIV efficacy in fresh human PBMCs, reverse transcriptase readout, HIV-1 BR/93/021; settings: for TI (TC50/IC50): HIV-1 BR/93/021, PBMCs; for IC50: HIV-1 BR/93/021, fresh human PBMCs, seven days, RT activity
Method: Compounds were evaluated for their ability to inhibit HIV replication in fresh human PBMCs. The assay was performed as follows.
Fresh human PBMCs, seronegative for HIV and HBV, were isolated from screened donors (Interstate Blood Bank, Inc. Memphis, Tenn.). Cells were pelleted/washed 2-3 times by low speed centrifugation and re-suspension in PBS to remove contaminating platelets. The Leukophoresed blood was then diluted 1:1 with Dulbecco's Phosphate Buffered Saline (DPBS) and layered over 14 mL of Lymphocyte Separation Medium (LSM; Cellgro® by Mediatech, Inc.; density 1.078+/−0.002 g/ml; Cat.#85-072-CL) in a 50 mL centrifuge tube and then centrifuged for 30 minutes at 600×g. Banded PBMCs were gently aspirated from the resulting interface and subsequently washed 2× with PBS by low speed centrifugation. After the final wash, cells were enumerated by trypan blue exclusion and re-suspended at 1×10^7 cells/mL in RPMI 1640 supplemented with 15% Fetal Bovine Serum (FBS), and 2 mM L-glutamine, 4 μg/mL Phytohemagglutinin (PHA-P, Sigma). The cells were allowed to incubate for 48-72 hours at 37° C. After incubation, PBMCs were centrifuged and resuspended in RPMI 1640 with 15% FBS, 2 mM L-glutamine, 100 U/mL penicillin, 100 μg/mL streptomycin, 10 μg/mL gentamycin, and 20 U/mL recombinant human IL-2 (R&D Systems, Inc). IL-2 is included in the culture medium to maintain the cell division initiated by the PHA mitogenic stimulation. PBMCs were maintained in this medium at a concentration of 1-2×10^6 cells/mL with biweekly medium changes until used in the assay protocol. Cells were kept in culture for a maximum of two weeks before being deemed too old for use in assays and discarded. Monocytes were depleted from the culture as the result of adherence to the tissue culture flask.
For the standard PBMC assay, PHA-P stimulated cells from at least two normal donors were pooled (mixed together), diluted in fresh medium to a final concentration of 1×10^6 cells/mL, and plated in the interior wells of a 96 well round bottom microplate at 50 μL/well (5×10^4 cells/well) in a standard format developed by the Infectious Disease Research department of Southern Research Institute. Pooling (mixing) of mononuclear cells from more than one donor is used to minimize the variability observed between individual donors, which results from quantitative and qualitative differences in HIV infection and overall response to the PHA and IL-2 of primary lymphocyte populations. Each plate contains virus/cell control wells (cells plus virus), experimental wells (drug plus cells plus virus) and compound control wells (drug plus media without cells, necessary for MTS monitoring of cytotoxicity). Since HIV-1 is not cytopathic to PBMCs, this allows the use of the same assay plate for both antiviral activity and cytotoxicity measurements. Test drug dilutions were prepared at a 2× concentration in microtiter tubes and 100 μL of each concentration was placed in appropriate wells using the standard format. 50 μL of a predetermined dilution of virus stock was placed in each test well (final MOI≅0.1). The PBMC cultures were maintained for seven days following infection at 37° C., 5% CO2. After this period, cell-free supernatant samples were collected for analysis of reverse transcriptase activity as a measure of virus release. Following removal of supernatant samples, compound cytotoxicity was measured by addition of MTS to the plates for determination of cell viability. Wells were also examined microscopically and any abnormalities were noted.
A microtiter plate-based reverse transcriptase (RT) reaction was utilized (Buckheit et al., AIDS Research and Human Retroviruses 7:295-302, 1991). Tritiated thymidine triphosphate (3H-TTP, 80 Ci/mmol, NEN) was received in 1:1 dH2O:Ethanol at 1 mCi/mL. […]

[2] = MTS staining for cell viability in U1 cell assay; settings: human, U1 cells stimulated with TNF-α, read-out: TC50
Method: as §1
At assay termination, the assay plates were stained with the soluble tetrazolium-based dye MTS (CellTiter 96 Reagent, Promega) to determine cell viability and quantify compound toxicity as described for the PBMC assay.
as §2, §3

[3] = Human immunodeficiency virus 1, PBMC, 168 h
[4] = Human immunodeficiency virus 1, 72 h, U1 cell assay, Table 6, 5 ng/mL TNF-α, 3 days, RT activity

Row | Compound | TI (TC50/IC50) ([1]; U1 cell assay) | IC50 ([1]; U1 cell assay, Table 6, 5 ng/mL TNF-α, 3 days, RT activity) [µM] | TI (TC50/IC50) (HIV-1 BR/93/021) | IC50 (HIV-1 BR/93/021) [µM] | IC50 (HIV-1 BR/93/021; [3]) [µM] | IC50 [1, 4] [µM] | IC50 ([1]; Human immunodeficiency virus 1, U1 cell assay, analogs, Table 8) [µM] | CC50 at 3 days ([2]; Table 6, MTS) [µM] | CC50 at 3 days ([2]; analogs, Table 8, MTS) [µM]
1 | 2-chloro-N-(4-methylphenyl)-4-(trifluoromethyl)-1,3-thazole-5-carboxamide [Compound 91161] | 1.35 | 16.5 | 12.01 | 1.94 |  |  |  |  | 
2 | CCc1c(C(=O)Nc2ccccc2)c(C)nc2sc(C(N)=O)c(N)c12 [Compound 75168, 3-amino-4-ethyl-6-methyl-N˜5˜-phenylthieno[2,3-b]pyridine-2,5-dicarboxamide] |  |  | >12.52 |  | 2.14 |  |  |  | 
3 | COc1ccc2cc3c(N)n[nH]c3nc2c1 [Compound 89246, 7-methoxy-1H-pyrazolo[3,4-b]quinolin-3-ylamine] | 102 |  | 69.57 |  | 0.47 | 0.24 | < 0.172 | 24.6 | 29
4 | CCc1c(C)nc2sc(C(N)=O)c(N)c2c1C [Compound 103833, 3-amino-5-ethyl-4,6-dimethylthieno[2,3-b]pyridine-2-carboxamide] | >94 |  | >129.66 |  | 0.29 | 0.4 |  | > 37.6 | 
5 | COc1ccc2nc(C(F)(F)F)c(C#N)c(N)c2c1 [Compound 104366, 4-amino-6-methoxy-2-(trifluoromethyl)-3-quinolinecarbonitrile] | >49.6 |  | 38.91 |  | 0.64 | < 0.25 |  | 12.4 | 
6 | CS(=O)(=O)c1ncc(-c2ccc(Br)cc2)cn1 [Compound 107129, -(4-bromophenyl)-2-(methylsulfonyl)pyrimidine] |  |  | 3.48 |  | 1.8 | > 53 |  | > 53 | 
7 | COc1cccc(NC(=O)c2cc(Cl)nnc2Cl)c1 [Compound 107740, 3,6-dichloro-N-(3-methoxyphenyl)-4-pyridazinecarboxamide] | >26.6 |  | 94.00 |  | 0.2 | 1.1 |  | > 29.3 | 
8 | Fc1ccc(Nc2ncnc3ccccc23)cc1Cl [Compound 109020, N-(3-chloro-4-fluorophenyl)-N-(4-quinazolinyl)amine] | >151 |  | >3.09 |  | 13.2 | 0.27 |  | > 40.8 | 
